Experimental data: article PMC12207533, “Structure-guided design of a methyltransferase-like 3 (METTL3) proteolysis targeting chimera (PROTAC) incorporating an indole–nicotinamide chemotype” (RSC Medicinal Chemistry, 2025)
Values joined by “and” are separate entries in the source; they are usually repeats but may differ in a detail not shown here. Equal values may be shown once. Read-outs that look alike come from different tables or passages of the source.

What was measured:
METTL3 [1] = molecular target: T1, METTL3 (Homo sapiens, UniProt Q86U44); test: Immunoblotting of METTL3 protein levels in MOLM-13 cells; assay type: cell-based; conditions: MOLM-13, 0.1-10 μM, 16 h
T1 construct: endogenous in cells; host or cells: MOLM-13
Protocol: MOLM-13 were seeded in 12-well cell culture plates at a density of 1 × 10^6 cells per mL and treated with DMSO (final: 0.1%) or different concentrations of PROTAC degraders in DMSO at the indicated times. Treatments were conducted in biological triplicate with varying passages of MOLM-13 cells. The cells were harvested by centrifugation at 500g for 5 min and washed with PBS. The cells were lysed with RIPA lysis buffer with the addition of protease inhibitor (1× cOMPLETE), and insoluble cellular parts were separated by centrifugation (12 000g for 10 min), subsequently, the supernatant was boiled with 1× Laemmli sample buffer (Carl Roth) for 5 min at 95 °C. Proteins were separated by SDS–PAGE on 4–20% Criterion™ TGX™ Precast Protein Gels (Bio-Rad) and transferred to Amersham™ Protean® 0.45 μm nitrocellulose membrane (Cytiva) using semi-dry transfer (25 V, 1 A, Towbin buffer). The membrane was blocked with 5% milk (Carl Roth) in TBST buffer and incubated with the following primary antibodies: Anti-METTL3 (1 : 1000, Abcam, ab195352), anti-METTL14 (1 : 1000, Abcam, ab220030), anti-Bcl2 (1 : 1000, Cell Signaling Technology [CST], EPR16891), anti-Mcl-1 (1 : 1000, CST, 5453 T), anti-Bcl-XL (1 : 1000, CST, 2764 T), anti-vinculin (1 : 1000, CST, 13901) or anti-GAPDH (1 : 5000, CST, D17C4) overnight at 4 °C. Subsequently, the membrane was incubated for 1 h at RT with secondary antibodies: anti-rabbit (1 : 2000, VWR, NA934) or anti-mouse (1 : 2000, VWR, 102646-160). The protein bands were detected via chemiluminescence using Pierce™ ECL western blotting substrate and a Fusion FX imaging system (Vilber). The ImageLab software (Bio-Rad) was used for band quantification.

[2] = molecular target: T2, VCB (VHL, elongin B, elongin C) (Homo sapiens, UniProt P40337); test: FP displacement assay with VCB (binary and ternary KD, cooperativity); assay type: binding
T2 construct: VHL (UniProt: P40337, aa 1–213); His6 (N); made in house; host or cells: E. coli BL21 (DE3)
Protocol: Fluorescence polarization (FP) displacement assays with METTL3/14 (ref. [36]) and VCB[38–40] were performed following previous protocols with slight adaptations. All experiments were conducted in black Greiner 96-well half-area plates using a Tecan Spark 10 M plate reader, equipped with polarization filters coupled to a monochromator setup (λex = 480 nm, λem = 530 nm). Reaction mixtures for METTL3/14 contained 300 nM recombinant enzyme, 20 nM FAM-labelled displacement tracer (STM-FL[36]), and the test compounds at varying concentrations in 25 mM Tris HCl, pH 7.5, 100 mM NaCl, and 10% DMSO. For VCB, the mixtures contained 40 nM recombinant enzyme, 10 nM FAM-labelled probe (FAM-DEALAHyp[…], Tocris Bioscience), and the tested compounds, at varying concentrations, in 50 mM Tris, pH 7.5, 200 mM NaCl, 2 mM DTT, and 10% DMSO. […] All measurements were performed at least as technical triplicates. Polarization values (mP) were determined from polarization-specific parallel and orthogonal fluorescence intensities using the Tecan in-built calculation routine. Using GraphPad Prism 8.0.1, the FP values were normalized, and KD values were calculated using a 4-parameter Hill equation: y(% probe bound) = bottom + ([ligand]slope) × (top–bottom)/([ligand]slope + KD slope).

MOLM-13 cells = test: Cell viability assay (CellTiter Glo 2.0); assay type: cell-based, human; conditions: Homo sapiens, MOLM-13, 72 h; read-out: IC50 (cell viability inhibition)
Protocol: To determine cell viability, MOLM-13 cells were treated with the indicated compounds in a 1 : 1 serial dilution, with pure DMSO (final: 0.1%) as the negative control. Briefly, 1000 cells were seeded in black Greiner half-area 96-well plates and incubated for 72 h with inhibitors from DMSO stocks under standard cultivation conditions. Then, Promega CellTiter Glo 2.0 reagent was added to each well according to the manufacturer's protocols, and luminescence was measured using a Tecan Spark 10 M. Experiments were conducted in technical triplicate. Data was normalized to the DMSO control and analyzed with GraphPad Prism 8.0.1 to determine EC50 values. Synergistic effects of venetoclax and AF151 on cell MOLM-13 viability were conducted accordingly, with dilution series of both compounds analyzed using the SynergyFinder+ webtoolkit.[57]

human VHL = molecular target: T3, human VHL (Homo sapiens, UniProt P40337); test: HTRF human VHL binding kit; conditions: VHL affinity in presence and absence of METTL3/14 (4 μM)
T3 construct: purchased Revvity
Protocol: PROTACs binding to VHL or CRBN were measured using a homogeneous time-resolved fluorescence (HTRF) human VHL or CRBN binding kit (Revvity). Samples were prepared according to the manufacturer's protocol, with compounds diluted in the provided diluent while maintaining a constant DMSO concentration with a final concentration of 1.25%. For the ternary KD determinations, METTL3/14 was added at 4 μM, corresponding to approximately a 20- to 40-fold excess of binary KD, while all other component concentrations were kept as specified in the protocol. Measurements were performed in triplicate using a Tecan Spark 10 M plate reader, recording donor and acceptor emissions at λem_donor = 620 nm and λem_acceptor = 665 nm, respectively, following excitation of the HTRF donor at λex = 320 nm. The acceptor-to-donor emission ratio was calculated as ratio = signal 665 nm/signal 620 nm. Using GraphPad Prism 8.0.1, the fluorescence values were normalized, and KD values were calculated as specified above.

METTL3 [3] = system: METTL3; parameters: method as in PMID 38194973; conditions: cited from earlier work

T2 sequence (P40337 whole entry, the tested form may be a part): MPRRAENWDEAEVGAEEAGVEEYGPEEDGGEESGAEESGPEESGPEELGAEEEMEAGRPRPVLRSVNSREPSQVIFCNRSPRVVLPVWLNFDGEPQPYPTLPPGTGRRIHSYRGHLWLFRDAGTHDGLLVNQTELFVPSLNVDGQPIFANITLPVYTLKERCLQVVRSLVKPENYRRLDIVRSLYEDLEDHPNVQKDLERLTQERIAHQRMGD
T2 sequence (Q15370 whole entry partner, the tested form may be a part): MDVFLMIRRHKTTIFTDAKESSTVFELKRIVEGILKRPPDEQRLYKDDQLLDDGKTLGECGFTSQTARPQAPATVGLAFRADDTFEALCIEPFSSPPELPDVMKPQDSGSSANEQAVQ
T2 sequence (Q15369 17-112 partner limits assumed): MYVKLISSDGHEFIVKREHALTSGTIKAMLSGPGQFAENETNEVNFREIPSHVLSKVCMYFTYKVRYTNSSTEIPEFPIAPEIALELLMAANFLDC
T1 sequence (Q86U44 whole entry): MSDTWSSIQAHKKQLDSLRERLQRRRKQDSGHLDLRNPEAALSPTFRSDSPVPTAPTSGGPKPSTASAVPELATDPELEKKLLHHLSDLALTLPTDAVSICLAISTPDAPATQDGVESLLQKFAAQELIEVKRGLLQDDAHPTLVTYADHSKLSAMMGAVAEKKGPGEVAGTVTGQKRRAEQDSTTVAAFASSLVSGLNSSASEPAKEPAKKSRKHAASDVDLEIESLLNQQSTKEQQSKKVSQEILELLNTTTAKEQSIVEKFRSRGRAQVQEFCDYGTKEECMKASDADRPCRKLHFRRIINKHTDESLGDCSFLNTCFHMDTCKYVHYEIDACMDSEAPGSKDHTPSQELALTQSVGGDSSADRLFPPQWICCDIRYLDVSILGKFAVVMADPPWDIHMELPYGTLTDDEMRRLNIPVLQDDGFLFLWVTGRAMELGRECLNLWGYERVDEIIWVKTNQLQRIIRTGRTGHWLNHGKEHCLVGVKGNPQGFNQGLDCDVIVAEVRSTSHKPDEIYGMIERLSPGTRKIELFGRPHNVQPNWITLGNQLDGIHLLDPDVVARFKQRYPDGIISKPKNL
T3 sequence (P40337 whole entry): as the sequence (P40337 whole entry, the tested form may be a part) above
T3 sequence (Q15370 whole entry partner): as the sequence (Q15370 whole entry partner, the tested form may be a part) above
T3 sequence (Q15369 whole entry partner): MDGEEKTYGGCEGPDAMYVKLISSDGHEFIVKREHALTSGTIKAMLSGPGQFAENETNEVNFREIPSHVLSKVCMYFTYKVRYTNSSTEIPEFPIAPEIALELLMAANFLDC

## CC1(C)CCN(Cc2ccc3nc(Cn4cc(-c5cc(Br)cc6[nH]ncc56)nn4)cn3c2)CC1 [STM3006, reference compound]
METTL3 [1]
  METTL3 degradation (Western blot screening): do not func?on as METTL3 degraders

## COc1cc2c(cc1Cc1cccc(Cl)c1F)c(=O)c(C(=O)O)cn2[C@H](CO)C(C)C [Elvitegravir, reference compound]
METTL3 [1]
  METTL3 degradation (Western blot screening): do not func?on as METTL3 degraders

## Cc1ncsc1-c1ccc([C@H](C)NC(=O)[C@@H]2C[C@@H](O)CN2C(=O)[C@@H](NC(=O)CCC#Cc2ccc(CNc3cc(N4CCC5(CC4)CN(c4cc(F)c(CN6CCC(C)(C)CC6)cc4F)CC(=O)N5)ncn3)cc2)C(C)(C)C)cc1 [WD6305]
[2]; 40 nM VCB, 10 nM probe, absence of METTL3, read-out: KD E3-ligases (VHL, FP), binary
  Kd: 1700 nM
[2]; absence of METTL3, read-out: KD binary (VHL)
  Kd: 1760 ± 264 nM
[2]; presence of METTL3/14 (12 μM), read-out: KD ternary (VHL)
  Kd: 77.4 nM and 79 nM
MOLM-13 cells
  IC50: 780 nM
Human VHL
  cooperativity (HTRF): positive cooperativity
METTL3 [3]
  Dmax (METTL3 degradation): ~91%
METTL3 [3]; read-out: DC50 (METTL3 degradation)
  DC50: 140 nM
